For 59 compounds, RP-LC retention time results are on record in the METLIN SMRT retention time set (Domingo-Almenara et al. 2019).

A short description of the series: gradient 5% acetonitrile 3 min, to 50% in 2 min, to 85% in 15 min, held 3 min, 100 µL/min. The conditions noted are these: column: Zorbax Extend-C18 2.1 x 50 mm; eluents: water / acetonitrile, 0.1% formic acid. In outline: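 Over 3 months, pure standards in mixtures of ~100 molecules were run by HPLC coupled to a quadrupole time-of-flight mass spectrometer in positive and negative ionization mode. The column was a Zorbax Extend-C18 (2.1 × 50 mm, 1.8 μm) at 100 μL/min, eluted with water and acetonitrile each holding 0.1% formic acid, with 40 μL dead and 900 μL dwell volumes. Retention time was determined from adduct peaks chosen by software and checked manually.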
Compound `Cc1cc(C(=O)N(Cc2ccco2)c2nc3ccccc3s2)on1` came in with an RP-LC retention time of 1100 s.
Next, `CCNc1cc(N2CCCC(CCC(=O)NCCC(C)C)C2)ncn1` (centres undefined): 662 s; `CCc1onc(C)c1C1CCCN1C(=O)CCc1ccccc1` (centres undefined): 846 s; `CCn1cnc2ccc(-c3noc(-c4cc(OC)cc(OC)c4)n3)cc21`: 797 s.
Next, `Cc1onc(-c2ccccc2Cl)c1C(=O)Nc1cc(C(=O)N2CCCC2)cn(C)c1=O`: 699 s; `Cc1cc(C)n2c(Nc3ccc(C(C)C)cc3)c(-c3cccc(Br)c3)nc2n1`: 1000 s; `CCCN1CCN(c2ccc(-c3nc(-c4ccc(C)cc4)no3)cn2)CC1`: 750 s.
The figure for `O=C(NCCCN1CCCC1=O)c1ccc(CN2CC(=O)N3CCCC3C2=O)cc1` (centres undefined) is 583 s.
`Cc1cc(NC(=O)c2csc(-c3cn(C)c4ncccc34)n2)ccc1F` gave an RP-LC retention time of 1050 s.
The figure for `Cc1ccc(NC(=O)Nc2nccn(-c3ccc(C)c(C)c3)c2=O)cc1C` is 1150 s.
The figure for `Cc1ccc2nc(C(=O)N3CCN(c4ccc(F)cc4)CC3)cn2c1` is 650 s; for `CCN(c1ccccc1)c1nc(Cl)nc2c1cnn2C` it is 1070 s; for `CCCCN(C)c1nc(-c2ccc(C)cc2)nc2ccccc12` it is 819 s.
Next, `COc1ccccc1-c1cc(C(F)(F)F)n2ncc(C(=O)OCCN3CCOCC3)c2n1`: 710 s.
Compound `Cn1c(CN2CCN(C(=O)c3ccc(C#N)cc3)CC2)nc2cc(C(=O)N3CCCC3)ccc21` returned an RP-LC retention time of 604 s.
The figure for `CCOC(=O)N1CCN(c2nnc(SCC(=O)NCc3ccco3)s2)CC1` is 668 s.
The figure for `CN(C)C(=O)c1cccc(COc2ccc(N3C(N)=NC(N)=NC3(C)C)cc2Cl)c1` is 659 s; for `COc1ccccc1-c1csc(NC(=O)Cc2csc(-c3ccccc3)n2)n1` it is 1150 s; for `O=C(Nc1ccc(F)cc1)C1CCCN(c2cnc3nccnc3c2)C1` (centres undefined) it is 736 s.
Next, `CCc1nc(N)n(CC(=O)NCc2ccc3c(c2)OCO3)c(=O)c1C`: 556 s; `O=C(NCc1csc(C2CCN(C(=O)c3ccc(F)c(F)c3)CC2)n1)C1CC1`: 705 s; `CC1CCN(S(=O)(=O)N2CCC(C(=O)N3CCCC(c4nc(C5CCOCC5)no4)C3)CC2)CC1` (centres undefined): 878 s.
With `O=C1CC(c2noc(-c3cc(F)ccc3Cl)n2)CN1c1ccc(F)cc1` (centres undefined), the RP-LC retention time came to 1020 s.
The figure for `COc1cc(NC(=O)COc2cc(C)nc(-c3ccc(C(F)(F)F)cc3)n2)cc(OC)c1OC` is 1080 s.
The figure for `Cc1cc(C)n(CC(=O)N(C)CC2(C)CCOCC2)n1` is 612 s.
The figure for `O=C(Cc1ccsc1)N1CCC(c2noc(C3CC3)n2)C1` (centres undefined) is 734 s; for `Cc1ccc(S(=O)(=O)N2C(=O)CCC2C(=O)NC2CCCCC2)cc1C` (centres undefined) it is 916 s; for `CCOC(=O)C1=C(N)Oc2cc(C)n(CCN(C)C)c(=O)c2C1c1ccccc1` (centres undefined) it is 572 s.
In the case of `COc1cccc(C(=O)N2CCC3(CC2)NC(=O)c2cc(C)ccc2N3C)c1`, the RP-LC retention time came out at 752 s.
With `CC(C)c1nc2ccc(C(=O)NCCc3c[nH]c4ccc(Cl)cc34)cc2o1`, the RP-LC retention time was 941 s.
Next, `CSc1cccc(NC(=O)CCCn2nc(-n3cccc3)c3c(C)cc(C)nc32)c1`: 1040 s.
Next, `CCCn1cc(S(=O)(=O)Nc2ccccc2OC)c2cccnc21`: 904 s; `CN(Cc1ccccc1)C(=O)CN1C(=O)CCCc2cc(S(=O)(=O)N3CCCCC3)ccc21`: 907 s; `Cc1ccc(Cl)cc1N(C)C(=O)Cn1cnc2nc3c(cc2c1=O)CCCC3`: 809 s.
Next, `O=C(Nc1cccn2cnnc12)c1cccc(C(F)(F)F)c1`: 738 s.
As to `Fc1cccc(Cn2cc(-c3noc(-c4ccc5c(c4)OCO5)n3)nn2)c1`, the RP-LC retention time is 962 s.
Regarding `Cc1cc(C(=O)OCc2cc(-c3ccc4c(c3)OCCO4)on2)c(C)o1`, the RP-LC retention time is 1070 s.
`CCc1nc2cc(N3CCCC(C(=O)O)C3)cnc2nc1CC` (centres undefined) came in with an RP-LC retention time of 693 s.
The compound `CCOc1cc(C(=O)Nc2cc(-c3cn4cccnc4n3)ccc2C)cc(OCC)c1OCC` had an RP-LC retention time of 780 s.
As for `O=C(NCc1ccc(N2CCOCC2)nc1)c1cc(F)cc(F)c1`, the RP-LC retention time came out at 606 s.
The figure for `COc1cc(NC(=O)CN2C(=O)CC(c3ccc(Cl)cc3)=Nc3cccnc32)cc(OC)c1` is 1000 s.
The figure for `COC(=O)C1=CN(c2ccc(F)c(F)c2)c2ccccc2S1(=O)=O` is 789 s.
The figure for `O=C(c1ccoc1)N1CCC(F)(C(=O)NCC2CC2)CC1` is 618 s; for `Cc1ccc(CNC(=O)CCn2nc(C)c3c(C)n(-c4ccccc4)nc3c2=O)o1` it is 734 s; for `Cc1ccccc1Cn1c(CNC(=O)Cc2ccccc2)nc2ccccc21` it is 645 s.
For the compound `Cc1ccc(NC(=O)C2CCCN(S(=O)(=O)c3cn(C(C)C)cn3)C2)cc1F` (centres undefined), the RP-LC retention time was determined as 847 s.
The figure for `O=C(C1CCOC1)N1CC(Oc2ccc(-c3nc(-c4ccccc4)no3)cc2)C1` (centres undefined) is 952 s; for `Cc1cccc(OCCCC(=O)Nc2nc(-c3ccc(Br)cc3)cs2)c1` it is 1260 s.
Next, `CCNC(=O)CCc1nc2ccccc2n(CC(=O)NCc2cccc(OC)c2OC)c1=O`: 1110 s; `Cc1ccc(-c2nnc(-c3ccccc3)o2)cc1S(=O)(=O)N(C)C`: 950 s; `Cc1ccccc1C1CCCN1C(=O)c1cnn2cc(Br)cnc12` (centres undefined): 869 s.
Next, `COc1cn(CC(=O)Nc2ccc(C)c(Cl)c2)c(CN2CCN(C(C)=O)CC2)cc1=O`: 595 s.
`O=C(Nc1ccc2c(c1)OCO2)C1CC(=O)N(CCc2c[nH]c3ccc(Cl)cc23)C1` (centres undefined) came in with an RP-LC retention time of 801 s.
Next, `CCOC(=O)N1CCN(C(=O)C2CCN(c3ncnc4c3oc3ccccc34)CC2)CC1`: 673 s; `CC(=O)N1CCCC1c1nc(C2CN(C(=O)NCc3ccco3)C2)no1` (centres undefined): 617 s; `COc1ccc(NC(=O)C2CCN(S(=O)(=O)c3cc(-c4noc(C)n4)cs3)CC2)c(OC)c1`: 885 s.
As to `CCCn1cc(C2=CCN(C(=O)Nc3cccc(Cl)c3F)CC2)c2cccnc21`, the RP-LC retention time came to 773 s.
Next, `Cc1nnc2n1CCC(N(C)C(=O)c1cc(C3CC3)[nH]n1)CC2` (centres undefined): 530 s.
With `COc1ccc(CN2CCc3nc(N4CCN(c5ccccc5OC)CC4)ncc3C2)cc1`, the RP-LC retention time was found to be 762 s.
